Measured values as given in PubChem BioAssay AID588771 (The Scripps Research Institute Molecular Screening Center, 2011).
The source made the active and inactive calls. How the calls were made is not given here.

Target: 3C-like protease (3CLpro), SARS coronavirus
Assay: SARS 3CLpro protease inhibitor potency, late-stage follow-up, biochemical, fluorescence, dose response, set 3 (AID 588771)
Conditions: purified 3CLpro, fluorogenic substrate cleavage

| SMILES | IC50 |
| --- | --- |
| CC(C)(C)NC(=O)C(c1cccnc1)N(C(=O)c1ccco1)c1ccc(Cc2ccccc2)cc1 (stereo not given) | inactive |
| CC(C)(C)NC(=O)[C@@H](c1cccnc1)N(C(=O)c1cnc[nH]1)c1ccc(C(C)(C)C)cc1 | inactive |
| CC(C)(C)NC(=O)C(c1ccncc1)N(C(=O)c1ccco1)c1ccc(C(C)(C)C)cc1 (stereo not given) | inactive |
| O=C(Nc1ccc(N(C(=O)Cn2nnc3ccccc32)C(C(=O)NCc2ccccc2)c2cccc(F)c2)cc1)C1CCC1 (stereo not given) | 2.3 µM |
| CC(C)(C)NC(=O)[C@H](c1cccnc1)N(C(=O)c1cnc[nH]1)c1ccc(C(C)(C)C)cc1 | 4.5 µM |
| Cn1cnc(C(=O)N(c2ccc(C(C)(C)C)cc2)C(C(=O)NC(C)(C)C)c2cccnc2)c1 (stereo not given) | inactive |
| CC(C)(C)NC(=O)C(c1ccnnc1)N(C(=O)c1ccco1)c1ccc(C(C)(C)C)cc1 (stereo not given) | inactive |
| CC(C)(C)NC(=O)C(c1cnccn1)N(C(=O)c1ccco1)c1ccc(C(C)(C)C)cc1 (stereo not given) | 5.5 µM |
| CC(C)C(=O)Nc1ccc(N(C(=O)Cn2nnc3ccccc32)C(C(=O)NCc2ccccc2)c2cccc(F)c2)cc1 (stereo not given) | 4.1 µM |
| O=C(Nc1ccc(N(C(=O)Cn2nnc3ccccc32)C(C(=O)NCc2ccccc2)c2cccc(F)c2)cc1)C1CC1 (stereo not given) | 3 µM |
